Experimental data reported in paper PMC8165160, “Substrate Specificities and Inhibition Pattern of the Solute Carrier Family 10 Members NTCP, ASBT and SOAT” (Frontiers in Molecular Biosciences, 2021).
Counter-ions that a name gives are not always drawn. Like-named read-outs stand apart in the source and are kept apart here.

What was measured:
SOAT = target: T1, SOAT (Homo sapiens, UniProt Q3KNW5); test: Transport inhibition in SOAT-HEK293 cells; assay type: cell-based; conditions: substrate inhibitors, 1 min after 5 min preincubation
T1 construct: The full-length open reading frames of NTCP, ASBT, and SOAT were cloned; expressed in transfected cells; host or cells: Flp-In T-REX HEK293 (SOAT-HEK293), tetracycline-induced
T1 sequence (Q3KNW5 1-377): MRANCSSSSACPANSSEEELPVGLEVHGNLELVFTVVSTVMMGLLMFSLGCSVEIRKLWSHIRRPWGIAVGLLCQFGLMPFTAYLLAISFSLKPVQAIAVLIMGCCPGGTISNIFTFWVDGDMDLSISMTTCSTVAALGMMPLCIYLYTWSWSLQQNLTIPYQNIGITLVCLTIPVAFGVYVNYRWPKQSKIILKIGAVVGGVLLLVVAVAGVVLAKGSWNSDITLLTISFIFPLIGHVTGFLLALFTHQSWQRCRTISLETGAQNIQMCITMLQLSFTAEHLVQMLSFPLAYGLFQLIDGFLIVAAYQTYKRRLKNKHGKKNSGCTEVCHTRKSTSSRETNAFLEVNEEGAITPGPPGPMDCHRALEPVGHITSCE
Procedure: Cells were washed three times with PBS and were preincubated with the respective inhibitor in sodium transport buffer for 5 min at 37°C. Uptake was initiated by adding the respective radiolabeled substrate to the well and incubating for a fixed time as indicated in the figures at 37°C. Transport was terminated by removing the transport buffer and washing five-times with ice-cold PBS. Cell monolayers were lysed in 1 N NaOH with 0.1% SDS and the cell-associated radioactivity and protein content was determined as described above. For uptake inhibition with the myr-preS1 peptide the sodium transport buffer contained additionally MEM-amino acid solution (ThermoFisher) at 1:50 dilution.
All transport or inhibition graphs were generated with GraphPad Prism 6.0 (GraphPad). Determination of IC50 values was done by nonlinear regression analysis using the equation log (inhibitor) vs. response settings. If not stated otherwise in the legends all data represent means ± SD of at least triplicate determinations of representative experiments.
FIGURE 3 Inhibition of NTCP, ASBT, and SOAT with substrate inhibitors. Transport of [^3H]TC, [^3H]TLC, and [^3H]DHEAS was analyzed in NTCP-HEK293, ASBT-HEK293, and SOAT-HEK293 cells in the presence of the substrate inhibitors TC, TLC, and DHEAS at increasing concentrations ranging from 100 nM till 1000 µM. After 5 min of preincubation with the respective inhibitory compound, 200 nM [^3H]TLC, [^3H]TC or [^3H]DHEAS were added for additional 1 min and the cell lysates were analyzed by liquid scintillation counting. Unspecific uptake of HEK293-FlpIn cells was set to 0%. Carrier-specific uptake without inhibitor was set to 100%.
Transport of [^3H]TC, [^3H]TLC, and [^3H]DHEAS was analyzed in NTCP-HEK293, ASBT-HEK293, and SOAT-HEK293 cells in the presence of different supposed non-substrate triterpenoid inhibitors as indicated at increasing concentrations ranging from 100 nM till 1000 µM. After 5 min of preincubation with the respective inhibitory compound, 1 µM [^3H]TLC, [^3H]TC or [^3H]DHEAS were added for additional 10 min at 37°C and the cell lysates were analyzed by liquid scintillation counting. Experiments performed without inhibitor were set to 100%. Means of negative controls were subtracted to calculate net transport rates (expressed as percentage of control). Data represent means ± SD of quadruplicate determinations of representative experiments.

ASBT = target: T2, ASBT (Homo sapiens, UniProt Q12908); test: Transport kinetics (concentration-dependent uptake) in ASBT-HEK293 cells; assay type: cell-based; conditions: uptake via ASBT, 1 min, 37°C
T2 construct: The full-length open reading frames of NTCP, ASBT, and SOAT were cloned; expressed in transfected cells; host or cells: Flp-In T-REX HEK293 (ASBT-HEK293), tetracycline-induced
T2 sequence (Q12908 1-348): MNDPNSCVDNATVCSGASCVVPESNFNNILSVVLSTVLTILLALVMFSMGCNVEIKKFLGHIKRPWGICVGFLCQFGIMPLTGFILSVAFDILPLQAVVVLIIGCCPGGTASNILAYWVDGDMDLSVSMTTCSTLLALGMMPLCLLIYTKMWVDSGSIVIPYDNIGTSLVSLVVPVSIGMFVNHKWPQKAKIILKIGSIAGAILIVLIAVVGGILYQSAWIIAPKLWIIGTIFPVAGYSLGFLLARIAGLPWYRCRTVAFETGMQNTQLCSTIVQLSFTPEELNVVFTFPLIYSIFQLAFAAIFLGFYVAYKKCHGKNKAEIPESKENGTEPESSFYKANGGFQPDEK
Procedure: Uptake experiments were initiated by replacing the preincubation buffer by 500 μL transport buffer containing the radiolabeled test compound and were performed at 37°C. Transport was terminated by removing the transport buffer and washing five-times with ice-cold PBS. Cell monolayers were lysed in 1 N NaOH with 0.1% SDS and the cell-associated radioactivity was determined by liquid scintillation counting.
FIGURE 2 NTCP, ASBT, and SOAT transport kinetics. Concentration-dependent uptake was analyzed in NTCP-HEK293, ASBT-HEK293, and SOAT-HEK293 cells for the indicated substrates at increasing substrate concentrations. Stably transfected HEK293 cells were pretreated with 1 μg/ml tetracycline to induce carrier expression. HEK293-FlpIn cells were used as control. Uptake was analyzed for 1 min at 37°C. Afterward, the medium was removed and each cell monolayer was washed and processed to determine the protein content and cell-associated radioactivity. Specific uptake was calculated by subtracting non-specific uptake of the HEK293-FlpIn control cells (open squares) from uptake into carrier-overexpressing HEK293 cells (filled squares) and is shown by broken lines. The values represent means ± SD of duplicate experiments, each with triplicate determinations (n = 6).

[1] = SOAT IC50, substrate [3H]DHEAS, 200 nM [3H]DHEAS
[2] = SOAT IC50, substrate [3H]TLC, 200 nM [3H]TLC

Compound	IC50 (SOAT; [1]) [µM]	IC50 (SOAT; [2]) [µM]	Apparent K m (ASBT) [µM]	V max (ASBT) [pmol/mg protein/min]	IC50 (SOAT; 200 nM [3H]DHEAS, read-out: SOAT IC50, substrate [3H]DHEAS) [µM]	IC50 (SOAT; 200 nM [3H]TLC, read-out: SOAT IC50, substrate [3H]TLC) [µM]
C[C@]12CC[C@H](OS(=O)(=O)O)CC1=CC[C@@H]1[C@@H]2CC[C@]2(C)C(=O)CC[C@@H]12 [DHEAS, Dehydroepiandrosterone sulfate]	51.7	15	–	–	–	–
C[C@H](CCC(=O)NCCS(=O)(=O)O)[C@H]1CC[C@H]2[C@@H]3[C@H](O)C[C@@H]4C[C@H](O)CC[C@]4(C)[C@H]3C[C@H](O)[C@]12C [Taurocholic acid]	99.7	143	14.7 ± 1.5	1821 ± 75.1	–	–
C[C@H](CCC(=O)NCCS(=O)(=O)O)[C@H]1CC[C@H]2[C@@H]3CC[C@@H]4C[C@H](O)CC[C@]4(C)[C@H]3CC[C@]12C [Taurolithocholic acid]	–	–	5.9 ± 1.8	1585 ± 99.7	3.9	2.6
